Source: ChEMBL document CHEMBL4130478, “Improved proteolytic stability and potent activity against Leishmania infantum trypanothione reductase of α/β-peptide foldamers conjugated to cell-penetrating peptides” (Eur J Med Chem, 2017)
Active and inactive are the calls of the source. No cut-off for these calls is given here. Numbered stars: 1 amine (or outer) side, 2 acyl side, 3 side chain; on linkers, the order of the positions; unused ones are H or OH. Bridge positions count the residues as written; N and C are the ends. Square brackets hold non-standard residues; d marks the D form. Peptide text beside a SMILES is read from it. I, II: the chains in the order shown. X2 = NCCCC[C@H](N[*:2])C(=O)C1CCCCN([C@@H](CCC(=O)O)C(=O)[*:1])C(=O)C1; X1 = O=C(CC[C@@H]1CCCN1[*:1])[*:2]; β3hI = CC[C@H](C)[C@H](N)CC(=O)O; β3hQ = NC(=O)CC[C@H](N)CC(=O)O; β3hK = NCCCC[C@H](N)CC(=O)O; β3hS = N[C@@H](CO)CC(=O)O; Nle = CCCC[C@H](N)C(=O)O; β3hA = C[C@H](N)CC(=O)O

Assays:
[1] = Cytotoxicity against human THP1 cells after 24 hrs by propidium iodide staining based flow cytometry; assay type: cell-based; details: THP-1 cells, read-out: LC50
[2] = tested on: Leishmania infantum; test: Leishmanicidal activity against Leishmania infantum amastigotes after 24 hrs by propidium iodide staining based flow cytometry; assay type: functional
[3] = Selectivity index, ratio of LC50 for cytotoxicity against human THP1 cells to LC50 for leishmanicidal activity against Leishmania infantum amastigotes; assay type: toxicity, cell-based; details: THP-1 cells, read-out: RatioLC50
[4] = tested on: Leishmania infantum; test: Leishmanicidal activity against Leishmania infantum MCAN/ES/89/IPZ229/1/89 promastigotes after 24 hrs by propidium iodide staining based flow cytometry; assay type: functional; details: MCAN/ES/89/IPZ229/1/89, 24 h
[5] = Selectivity index, ratio of LC50 for cytotoxicity against human THP1 cells to LC50 for leishmanicidal activity against Leishmania infantum MCAN/ES/89/IPZ229/1/89 promastigotes; assay type: toxicity, cell-based; details: THP-1 cells, read-out: RatioLC50
[6] = tested on: Leishmania infantum; test: Leishmanicidal activity against Leishmania infantum amastigotes at 25 uM after 24 hrs by propidium iodide staining based flow cytometry; assay type: functional, organism-based
[7] = target: Proteinase K (Engyodontium album, UniProt P06873); test: Stability assessed as Tritirachium album proteinase K-mediated compound degradation by measuring half life at 50 uM by HPLC method; assay type: ADME; details: parengyodontium album
Sequence of Proteinase K (P06873 whole entry): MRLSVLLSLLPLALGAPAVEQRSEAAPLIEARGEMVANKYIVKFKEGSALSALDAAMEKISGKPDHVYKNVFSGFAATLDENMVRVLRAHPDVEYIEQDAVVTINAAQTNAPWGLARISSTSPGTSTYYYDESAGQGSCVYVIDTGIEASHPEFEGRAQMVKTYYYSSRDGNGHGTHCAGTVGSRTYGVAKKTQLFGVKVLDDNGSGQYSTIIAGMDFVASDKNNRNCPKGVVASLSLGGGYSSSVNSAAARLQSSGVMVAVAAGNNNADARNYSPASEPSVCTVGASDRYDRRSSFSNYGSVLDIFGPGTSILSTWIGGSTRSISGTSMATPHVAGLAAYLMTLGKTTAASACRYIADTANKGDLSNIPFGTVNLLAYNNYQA

[8] = target: T1, Trypanothione reductase (Leishmania infantum, UniProt A4HSF7); test: Inhibition of oxidoreductase activity of recombinant Leishmania infantum trypanothione reductase pre-incubated for 10 mins before T[S]2 and NADPH addition
T1 sequence (A4HSF7 whole entry): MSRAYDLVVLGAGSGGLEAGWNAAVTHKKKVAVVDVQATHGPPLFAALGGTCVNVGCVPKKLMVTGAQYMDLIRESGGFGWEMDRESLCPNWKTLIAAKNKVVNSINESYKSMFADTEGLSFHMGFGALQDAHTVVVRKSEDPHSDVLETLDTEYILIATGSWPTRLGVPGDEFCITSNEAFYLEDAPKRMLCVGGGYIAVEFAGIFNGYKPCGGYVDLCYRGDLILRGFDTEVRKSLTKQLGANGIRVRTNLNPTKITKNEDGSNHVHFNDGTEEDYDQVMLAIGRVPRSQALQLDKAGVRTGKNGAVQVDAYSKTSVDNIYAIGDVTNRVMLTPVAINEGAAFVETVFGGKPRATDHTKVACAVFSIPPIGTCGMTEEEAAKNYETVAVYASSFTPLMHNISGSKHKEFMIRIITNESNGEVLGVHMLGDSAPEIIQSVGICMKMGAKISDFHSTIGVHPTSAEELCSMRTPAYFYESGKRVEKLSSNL

[9] = target: T1, Trypanothione reductase; test: Inhibition of dimerization of HIS/FLAG tagged Leishmania infantum trypanothione reductase incubated for 16 hrs in presence of dimerization buffer by ELISA
[10] = tested on: Leishmania infantum; test: Leishmanicidal activity against Leishmania infantum MCAN/ES/89/IPZ229/1/89 promastigotes at 25 uM after 24 hrs by propidium iodide staining based flow cytometry; assay type: functional, organism-based

Row | SMILES | CC50 at 24 h [1] [nM] | LC50 [2] [nM] | selectivity ratio [3] | LC50 [4] [nM] | selectivity ratio [5] | Activity [6] | half-life at 50 µM [7] [min] | IC50 [8] [nM] | IC50 [9] [nM] | Activity [10]
1 | CCCC[C@H](NC(=O)[C@H](CCCCN)NC(=O)[C@H](CC(C)C)NC(=O)C[C@H](CO)NC(=O)[C@@H](NC(=O)CNC(=O)[C@@H](NC(=O)C[C@H](CO)NC(=O)[C@H](CCC(N)=O)NC(=O)[C@@H](NC(=O)C[C@@H](NC(=O)[C@H](CCCCN)NC(=O)[C@@H]1CCCN1C(=O)[C@H](CCCNC(=N)N)NC(=O)[C@H](CCCNC(=N)N)NC(=O)[C@H](CCCNC(=N)N)NC(=O)[C@H](CCCNC(=N)N)NC(=O)[C@H](CCCNC(=N)N)NC(=O)[C@H](CCCNC(=N)N)NC(=O)[C@H](CCCNC(=N)N)NC(=O)[C@H](CCCNC(=N)N)NC(=O)[C@@H](N)CCCNC(=N)N)[C@@H](C)CC)[C@@H](C)CC)C(C)C)[C@@H](C)CC)C(N)=O (H-RRRRRRRRRPK[β3hI]IQ[β3hS]VGI[β3hS]LK[Nle]-NH2) | 5800 | 1900 | 3.1 | 980 | 5.9 |  |  |  |  | 
2 | CC[C@H](C)[C@H](NC(=O)CNC(=O)[C@@H](NC(=O)[C@H](CO)NC(=O)[C@H](CCC(N)=O)NC(=O)[C@@H](NC(=O)[C@@H](NC(=O)[C@H](CCCCN)NC(=O)[C@@H]1CCCN1C(=O)[C@H](CCCNC(=N)N)NC(=O)[C@H](CCCNC(=N)N)NC(=O)[C@H](CCCNC(=N)N)NC(=O)[C@H](CCCNC(=N)N)NC(=O)[C@H](CCCNC(=N)N)NC(=O)[C@H](CCCNC(=N)N)NC(=O)[C@H](CCCNC(=N)N)NC(=O)[C@H](CCCNC(=N)N)NC(=O)[C@@H](N)CCCNC(=N)N)[C@@H](C)CC)[C@@H](C)CC)C(C)C)C(=O)N[C@@H](CO)C(=O)N[C@@H](CC(C)C)C(=O)N[C@@H](CCCCN)C(=O)N[C@@H](CC(C)C)C(=O)O (H-RRRRRRRRRPKIIQSVGISLKL-OH) | 1700 | 3500 | < 1 | 4600 | < 1 |  |  |  |  | 
3 | CCCCCCCCCCCCCCCCOP(=O)([O-])OCC[N+](C)(C)C [MILTEFOSINE] |  | 2000 | 9.5 |  | < 1 |  |  |  |  | 
4 | CCCC[C@H](NC(=O)[C@H](CCCCN)NC(=O)[C@H](CCCC)NC(=O)[C@H](CO)NC(=O)[C@@H](NC(=O)CNC(=O)[C@H](CCCCN)NC(=O)[C@H](CO)NC(=O)[C@H](CCC(N)=O)NC(=O)[C@@H](NC(=O)[C@H](CCC(=O)O)N1CCCCC(C(=O)[C@H](CCCCN)NC(=O)[C@@H]2CCCN2C(=O)[C@H](CCCNC(=N)N)NC(=O)[C@H](CCCNC(=N)N)NC(=O)[C@H](CCCNC(=N)N)NC(=O)[C@H](CCCNC(=N)N)NC(=O)[C@H](CCCNC(=N)N)NC(=O)[C@H](CCCNC(=N)N)NC(=O)[C@H](CCCNC(=N)N)NC(=O)[C@H](CCCNC(=N)N)NC(=O)[C@@H](N)CCCNC(=N)N)CC1=O)[C@@H](C)CC)[C@@H](C)CC)C(=O)O (stereo partly specified) (I: IQSKGIS[Nle]K[Nle]-OH / II: H-RRRRRRRRRP; linker I:N-II:C via X2) | 2500 | 2800 | < 1 | 3500 | < 1 |  |  |  |  | 
5 | N=C(N)NCCC[C@H](NC(=O)[C@H](CCCNC(=N)N)NC(=O)[C@H](CCCNC(=N)N)NC(=O)[C@H](CCCNC(=N)N)NC(=O)[C@H](CCCNC(=N)N)NC(=O)[C@H](CCCNC(=N)N)NC(=O)[C@H](CCCNC(=N)N)NC(=O)[C@H](CCCNC(=N)N)NC(=O)[C@@H](N)CCCNC(=N)N)C(N)=O | > 25000 | > 25000 |  | > 25000 |  |  |  |  |  | 
6 | CCCCCCCCCCCCCCCCCCOC[C@H](COP(=O)([O-])OCC[N+](C)(C)C)OC [(R)-EDELFOSINE] | 1000 | 600 | 1.7 | 9000 | < 1 |  |  |  |  | 
7 | CCCC[C@H](NC(=O)C[C@H](CCCCN)NC(=O)[C@H](CCCC)NC(=O)C[C@H](CO)NC(=O)[C@@H](NC(=O)C[C@H](C)NC(=O)[C@@H](NC(=O)C[C@H](CO)NC(=O)C[C@H](CCC(N)=O)NC(=O)[C@@H](NC(=O)[C@@H](NC(=O)[C@H](CCCCN)NC(=O)CC[C@@H]1CCCN1C(C)=O)[C@@H](C)CC)[C@@H](C)CC)C(C)C)[C@@H](C)CC)C(N)=O (Ac-[X1]KII[β3hQ][β3hS]V[β3hA]I[β3hS][Nle][β3hK][Nle]-NH2) |  |  |  |  |  | inactive | < 15 | 1650 | 12800 | inactive
